Experimental data as given in patent US6414222B1, “Gene combinations for herbicide tolerance in corn” (Regents of the University of Minnesota, priority 1993, dated 2002).

Experiments:
[1] = system: cell line 2167-9/2160-154 H-1; experiment: Callus herbicide tolerance, line H-1; assay type: cell-based, maize; settings: cell line H-1
Protocol: (§1) Tolerant cell line 2167-9/2160-154 S-2 (“S-2”) was characterized to evaluate: (1) the magnitude of sethoxydim tolerance; (2) cross-tolerance of haloxyfop; and (3) the biochemical basis for the tolerance. Callus tissue from S-2 that had been maintained on 10 μM sethoxydim was transferred to media containing up to 100 μM sethoxydim. One-half gram of S-2 tissue was plated on a 7 cm filter paper as a lawn overlaying 50 ml agar-solidified culture medium containing 0, 0.5, 1.0, 2.0, 5.0, 10.0, 50.0 and 100 μM sethoxydim, and cultured for two weeks. Control cell line 2167-9/2160-154 was plated similarly on medium containing the same levels of sethoxydim. The control cell line growth after two weeks was inhibited 50% at 1 μM sethoxydim.
(§2) The tolerant callus cultures were characterized to determine the magnitude of sethoxydim and haloxyfop tolerance. Callus tissue from these lines was evaluated in experiments as described above in the characterization of line 2167-9/2160-154 S-2.

[2] = system: ACCase of cell line 2167-9/2160-154 S-1; experiment: Herbicide inhibition of ACCase, line S-1; assay type: biochemical, maize; settings: cell line S-1
Protocol: (§3) Maize chloroplasts, isolated as described above, were suspended in buffer C (0.1 M Tricine-KOH, pH 8.0; 0.3 M glycerol, and 1 mM DTT) and homogenized in a glass tissue homogenizer. The disrupted chloroplast fraction was centrifuged at 16,000 g for 15 minutes. The supernatant was desalted on a Sephadex G-25 column (1.5×5 cm equilibrated with 0.1 M Tricine-KOH, pH 8.0; and 0.3 M glycerol) and assayed directly. ACCase activity (B. J. Nikolau et al., Arch. Biochem. Biophys., 211, 605-612 (1981)) was assayed at 30° C. in a 0.2 ml volume which contained 1 mM ATP, 3 mM acetyl coenzyme A, 2.5 mM MgCl2, 50 mM KCl, 0.5 mM DTT, and 15 mM [^14C]NaHCO3 (0.17 mCi/mmol). Reactions were initiated by addition of acetyl coenzyme A and stopped by addition of 25 μl of 12 N HCl. Product formation was determined by the radioactivity found in an acid stable fraction by liquid scintillation spectrometry. Enzyme activity was linear for 15 minutes.
(§4) Acetyl Coenzyme A Carboxylase (ACCase) was extracted from cell lines S-1, H-1 and H-2 and assayed as described in detail for maize cell line S-2, above.

[3] = system: Heterozygous tolerant Inbred × S2 seedlings; experiment: Foliar herbicide application, lethal rate; assay type: in vivo, maize (Zea mays L.); settings: Heterozygous tolerant Inbred × S2, average of A188- and A619-derived F1 families
Protocol: (§5) Foliar applications of the herbicides were made to greenhouse- or field-grown seedlings at the three- to five-leaf stage. Herbicides were applied in a spray volume of 187 l/ha that includes 2.3 l/ha crop oil concentrate to enhance uptake. Sethoxydim and haloxyfop were applied using commercial formulations (Poast from BASF Corp and Verdict from Dow Elanco, respectively). Visual observations were recorded 14-21 days after herbicide treatments.
(§6) For each mutant, two homozygous tolerant R4 families were derived from two different regenerated plants and two heterozygous F1 families were obtained from crosses of R3 homozygous tolerant lines with the susceptible inbreds A188 and A619. Sethoxydim and haloxyfop each were applied at rates ranging from 0.0034 to 7.0 kg/ha. For each genotype a five-rate doubling series was used to determine herbicide lethality. Because of the large differences between wildtype and mutants in herbicide susceptibility, the ranges of herbicide application rates were varied. Two five plant/pot replicates of each family were evaluated for each rate. Herbicide injury symptoms were scored visually 21 days after herbicide treatment. The lethal rate was considered to be the lowest application rate resulting in death of all seedlings in the four replications of each homozygous tolerant genotype or in the eight replications of the heterozygous combinations.

[4] = system: Heterozygous tolerant Inbred × S3 seedlings; experiment: Foliar herbicide application, lethal rate; assay type: in vivo, maize (Zea mays L.); settings: Heterozygous tolerant Inbred × S3, average of A188- and A619-derived F1 families
Protocol: as §5, §6

[5] = system: Homozygous tolerant S3 seedlings; experiment: Foliar herbicide application, lethal rate; assay type: in vivo, maize (Zea mays L.); settings: for Lethal rates: Homozygous tolerant S3, average of two families, scored 21 days after treatment
Protocol: as §5, §6

[6] = system: Heterozygous tolerant Inbred × H2 seedlings; experiment: Foliar herbicide application, lethal rate; assay type: in vivo, maize (Zea mays L.); settings: Heterozygous tolerant Inbred × H2, average of A188- and A619-derived F1 families
Protocol: as §5, §6

[7] = system: Homozygous tolerant H1 seedlings; experiment: Foliar herbicide application, lethal rate; assay type: in vivo, maize (Zea mays L.); settings: Homozygous tolerant H1, average of two families; scored 21 days after treatment
Protocol: as §5, §6

[8] = system: Wildtype (A188 and A619) seedlings; experiment: Foliar herbicide application, lethal rate; assay type: in vivo, maize (Zea mays L.); settings: average response of A188 and A619, scored 21 days after treatment
Protocol: as §5, §6

[9] = system: Homozygous tolerant S2 seedlings; experiment: Foliar herbicide application, lethal rate; assay type: in vivo, maize (Zea mays L.); settings: for Lethal rates: Homozygous tolerant S2, average of two families, scored 21 days after treatment
Protocol: as §5, §6

[10] = system: Heterozygous tolerant Inbred × H1 seedlings; experiment: Foliar herbicide application, lethal rate; assay type: in vivo, maize (Zea mays L.); settings: Heterozygous tolerant Inbred × H1, average of A188- and A619-derived F1 families
Protocol: as §5, §6

[11] = system: Homozygous tolerant H2 seedlings; experiment: Foliar herbicide application, lethal rate; assay type: in vivo, maize (Zea mays L.); settings: for Fold increase in tolerance compared to the wildtype: H2 seedlings; for Lethal rates: Homozygous tolerant H2, average of two families, scored 21 days after treatment
Protocol: as §5, §6

[12] = system: cell line 2167-9/2160-154 H-2; experiment: Callus herbicide tolerance, line H-2; assay type: cell-based, maize; settings: cell line H-2
Protocol: as §1, §2

[13] = system: inbred wildtype control plants; experiment: Allelism testcross experiments, susceptible controls; assay type: in vivo, maize (Zea mays L.)
Protocol: as §5
All F1 combinations (no reciprocals) between S1, S2, S3, H1 and H2 homozygotes were made, and these F1s were test crossed to susceptible inbred lines. The testcross progeny were grown in the greenhouse and treated with the herbicides. In Experiment 1, progeny from testcrosses with each of the ten F1 combinations were treated with 0.05 kg/ha sethoxydim for combinations involving only S lines or with 0.009 kg/ha haloxyfop for combinations involving either of the H lines. In Experiment 2, a selected subset of the F1 combinations was tested that used testcross families that were separately derived from those used in Experiment 1. Testcross progeny of S lines were treated with 0.03 kg/ha sethoxydim, and H1 and H2 progeny were treated with 0.009 kg/ha haloxyfop. In each experiment, known susceptible and heterozygous plants were included as controls.

[14] = system: ACCase of cell line 2167-9/2160-154 H-2; experiment: Herbicide inhibition of ACCase, line H-2; assay type: biochemical, maize; settings: cell line H-2
Protocol: as §3, §4

## CCCC(=NOCC)C1=C(O)CC(CC(C)SCC)CC1=O (stereo not shown) [Sethoxydim, 2-[1-(ethoxyimino)-butyl]-5-[2-(ethylthio)propyl]-3-hydroxy-2-cyclohexen-1-one]
[1]
  Fold increase in herbicide concentration that results in a 50% reduction in growth vs unselected control cell line: 0 fold
[1]; listed as sethoxydim
  Fold increase in herbicide concentration that results in a 50% reduction in growth vs unselected control cell line: Neither haloxyfop selected line showed a significant degree of sethoxydim tolerance
[2]
  Fold increase in herbicide concentration that inhibits ACCase activity by 50% vs unselected parent cell line: 4 fold
[2]; listed as sethoxydim
  Fold increase in herbicide concentration that inhibits ACCase activity by 50% vs unselected parent cell line: more tolerant
[3]
  Lethal rates: ≧1.8 kg/ha
[4]
  Lethal rates: ≧1.8 kg/ha
[5]
  Lethal rates: >7.0 kg/ha
[5]; homozygous S3 seedlings, not killed at 7 kg/ha
  Fold increase over the lethal rate for wildtype plants: ≥ 127 fold
[6]
  Lethal rates: 0.22 kg/ha
[7]
  Lethal rates: 0.055 kg/ha
[8]
  Lethal rates: 0.055 kg/ha
[9]
  Lethal rates: >7.0 kg/ha
[9]; homozygous S2 seedlings, not killed at 7 kg/ha
  Fold increase over the lethal rate for wildtype plants: ≥ 127 fold
[10]
  Lethal rates: 0.055 kg/ha
[11]
  Fold increase in tolerance compared to the wildtype: about 16 fold
  Lethal rates: 0.88 kg/ha
[12]
  Fold increase in herbicide concentration that results in a 50% reduction in growth vs unselected control cell line: 0 fold
[12]; listed as sethoxydim
  Fold increase in herbicide concentration that results in a 50% reduction in growth vs unselected control cell line: Neither haloxyfop selected line showed a significant degree of sethoxydim tolerance
[13]; 0.05 kg/ha (Experiment 1) or 0.03 kg/ha (Experiment 2) sethoxydim
  Response of inbred wildtype control plants: all inbred wildtype plants died
[14]
  Fold increase in herbicide concentration that inhibits ACCase activity by 50% vs unselected parent cell line: 0 fold
[14]; listed as sethoxydim
  Fold increase in herbicide concentration that inhibits ACCase activity by 50% vs unselected parent cell line: no difference

## CC(Oc1ccc(Oc2ncc(C(F)(F)F)cc2Cl)cc1)C(=O)O (stereo not shown) [Haloxyfop, 2-[4-[[3-chloro-5-(trifluoromethyl)-2-pyridinyl]oxy]phenoxy]-propanoic acid]
[1]
  Fold increase in herbicide concentration that results in a 50% reduction in growth vs unselected control cell line: 61 fold
[1]; listed as haloxyfop
  Fold increase in herbicide concentration that results in a 50% reduction in growth vs unselected control cell line: ~60 fold
[2]
  Fold increase in herbicide concentration that inhibits ACCase activity by 50% vs unselected parent cell line: 3 fold
[2]; listed as haloxyfop
  Fold increase in herbicide concentration that inhibits ACCase activity by 50% vs unselected parent cell line: more tolerant
[3]
  Lethal rates: 0.11 kg/ha
[4]
  Lethal rates: 0.11 kg/ha
[5]
  Lethal rates: 0.22 kg/ha
[6]
  Lethal rates: 0.11 kg/ha
[7]
  Lethal rates: 0.11 kg/ha
[8]
  Lethal rates: 0.014 kg/ha
[9]
  Lethal rates: 0.22 kg/ha
[10]
  Lethal rates: 0.11 kg/ha
[11]
  Fold increase in tolerance compared to the wildtype: about 16 fold
  Lethal rates: 0.22 kg/ha
[12]
  Fold increase in herbicide concentration that results in a 50% reduction in growth vs unselected control cell line: 4 fold
[12]; listed as haloxyfop
  Fold increase in herbicide concentration that results in a 50% reduction in growth vs unselected control cell line: four-fold increase
[13]; 0.009 kg/ha haloxyfop
  Response of wildtype control plants: killed most, but not all
[14]
  Fold increase in herbicide concentration that inhibits ACCase activity by 50% vs unselected parent cell line: 0 fold
[14]; listed as haloxyfop
  Fold increase in herbicide concentration that inhibits ACCase activity by 50% vs unselected parent cell line: no difference
